Counter-ions that a name gives are not always drawn.
Key:
[1] = tested on: endotoxin lethality in CF1 mice; assay: Mouse endotoxin lethality model (D-galactosamine/LPS septic shock); assay type: in vivo; conditions: 100 mg/kg i.p., pretreated at t=-1 hr; death observed over 8-72 hours
Description: Using the method of Silverstein, (J. Exp. Med. 173, 357 (1991)) a mouse endotoxin lethality model may be used to determine if a compound of formula (1) has the ability to inhibit endotoxin-induced septic shock which is dependent on the production of Tumor Necrosis Factor-a (TNF-α). CF1 mice pretreated at time (t)=-1 hr with drug are challenged with 18 mg of D-glactoseamine and 50 ng of LPS, then observed for death over an 8-72 hour period.

[2] = tested on: macrophage antigen presentation to Lewis (LEW/N) rat T-cell hybridoma (Interleukin-2 production); assay: Regulation of antigen presentation to rat T-cell hybridoma (Interleukin-2 production); assay type: cell-based
Description: Using the method of Ku (Cellular Immunology 130,(1990)), and a Lewis (LEW/N) rat T-cell hybridoma reactive with the protein methylated bovine serum albumin (mBSA), the ability of a compound of formula (1) to regulate M.phi. antigen presentation in vitro may be measured. Peritoneal macrophages obtained from LEW/N rats are plated into tissue culture and treated with 100 ug of mBSA and drug. A control is prepared similarly. After a period of 18 hours the cells are washed and incubated with the T-cell hybridoma for an additional 12 hours. Supernatants from these cultures are obtained and measured for content of Interleukin-2, a T-cell derived lymphokine which is roduced by activated T-cells. […] Rat macrophage antigen presentation and the subsequent production of Interleukin-2 are inhibited when rug is administered over a concentration range from 0.1 to 100 uM as illustrated in the following table.

## Nc1ncnc2c1ncn2[C@@H]1CC[C@@H](O)C1 [(1R,3R)-TRANS-1(9-ADENYL)CYCLOPENTAN-3-OL HYDROCHLORIDE]
[1]
  protection against endotoxin lethality: protects against endotoxin lethality
[2]; 0.1 to 100 uM
  Rat macrophage antigen presentation and subsequent production of Interleukin-2: inhibited
[2]; in vitro
  T-cell activation: inhibits T-cell ctivation

Source: patent publication US5929079A, “Trans cyclopentanyl azaadenyl analogs useful as immunosuppressants” (Hoechst Marion Roussel, Inc., priority 1997, dated 1999)
